Here are results for 23 compounds from US5827562A, “Sweetener salts” (Holland Sweetener Company V.o.F., priority 1995, dated 1998).

Structures are written as SMILES. Several values for one entry are separate records, joined by “and”; a condition that tells them apart may be missing. Identical values can stand only once. Counter-ions that a name gives are not always drawn. Like-named read-outs stand apart in the source and are kept apart here. Peptide text beside a SMILES is read from it.

A short description of data set [1]: Solubility in water. Type of data set: physicochemical. Particulars: aqueous reaction medium.
Data set [2] can be described thus: Thermal stability test: open dish in thermostatted oven, decomposition products (DKP, AP) by hplc. The conditions noted are these: for DKP content: initial content, relative to dry product. The data set is classed as physicochemical. The protocol:
d. Thermal stability tests were conducted by allowing samples of a relevant product to stand for the indicated times in an open dish placed in a thermostatted oven at the relevant temperature, and to determine, via hplc, the concentrations of possible decomposition products such as, in the case of analysis of aspartame salts, diketopiperazine (DKP) and aspartyl-phenylalanine (AP) in the initial and the final sample.
(§1) A number of the products obtained in the above-mentioned experiments and comparative experiments were subjected to further analysis of characterization. The following values were determined: (a) thermal stability (at 70° C. and/or at 120° C.) and (b) dissolution rate. By way of comparison the same was done for a number of reference substances. As regards the thermal stability of the APM containing substances, attention was paid in particular to the increase in the diketopiperazine decomposition product (DKP) in wt.% relative to the dry product.

A short description of data set [3]: Moisture content, Karl-Fischer water determination. The data set is classed as physicochemical. Particulars: dried product. The protocol:
b. The moisture content of the products obtained was determined by means of the Karl-Fischer water determination.

Data set [4] in a line: Dissolution rate, spectrophotometric dissolution curve in pH 5.0 buffer. The data set is classed as physicochemical. Particulars: 23° C. The protocol:
c. The dissolution rate was found through spectrophotometric determination of the dissolution curve, by introducing 0.1 wt.% of the product (or a screen fraction thereof at 23° C. into a pH 5.0 buffer (Merck titrisol, pH 5.0, in 1 liter of Milli-Q water) whilst stirring continuously.
as §1, with “product. It was also established that the salts included in the table are not hygroscopic.” for “product.”

The conditions of data set [5]: general statement, aspartame or its derivatives; cited from earlier work.
The conditions of data set [6]: usual moisture content of the individual component; cited from earlier work.

For `COC(=O)[C@H](Cc1ccccc1)NC(=O)[C@@H](N)CC(=O)O` [exp. 1b., 1:1 salt of APM and CycH] (H-Asp-Phe-OMe), the “solubility of the sweetening salt” value in data set [1] is recorded as “high solubility”. Besides, the “Increase in DKP content” value in data set [2] (1 hour, 120° C.) was 0.14 wt. %. The compound also showed a DKP content in data set [2] of 0.18 wt. %. Further, the moisture content in data set [3] came to 0.16%; in data set [3] (table 1), 0.16 wt. %.
For `CC1=CC(=O)NS(=O)(=O)O1.COC(=O)[C@H](Cc1ccccc1)NC(=O)[C@@H](N)CC(=O)O` [comp. exp. 1C, 1:1 salt of APM and acesulfamic acid] (H-Asp-Phe-OMe), the “Increase in DKP content” value in data set [2] (1 hour, 120° C.) amounted to 2.04 wt. %; in data set [2] (70 hours, 70° C.) it was 1.27 wt. %. Also, the “thermal stability, observation in words” value is listed as “yellow/yellowbrown colour, with some degradation of the Ace part” in data set [2] (1 hour, 120° C.) and “pale yellow; with hplc some degradation of the Ace part” in data set [2] (70 hours, 70° C.). Moreover, the DKP content in data set [2] is reported as 0.35 wt. %. Besides, the moisture content came out at 0.76% in data set [3] and 0.76 wt. % in data set [3] (table 1).
Regarding `COC(=O)[C@H](Cc1ccccc1)NC(=O)[C@@H](N)CC(=O)O.O=C1NS(=O)(=O)c2ccccc21` [exp. 1a., 1:1 salt of APM and SacH] (H-Asp-Phe-OMe), the “Increase in DKP content” value was determined as 0 wt. % in data set [2] (1 hour, 120° C.) and 0 wt. % in data set [2] (70 hours, 70° C.). For the same compound, the DKP content in data set [2] is listed as 0.01 wt. %. Besides, the moisture content in data set [3] worked out at 0.03%; in data set [3] (table 1), 0.03 wt. %. The compound further registered a Dissolution rate in data set [4] (0.1 wt.% product, stirring) of 1 min.
Consider `CC1=CC(=O)NS(=O)(=O)O1.COC(=O)[C@H](Cc1ccccc1)NC(=O)[C@@H](N)CC(=O)O` [exp. 4a., 1:1 salt of APM and acesulfamic acid] (H-Asp-Phe-OMe), for which, in data set [2] (1 hour, 120° C.), the “Increase in DKP content” value is listed as 0 wt. % and the “thermal stability, observation in words” value is on record as “fully stable, white product”. In data set [2], this compound yielded a DKP content of 0.01 wt. %. The same compound yielded a moisture content in data set [3] of 0.12%. In addition, in data set [3] (table 1), the moisture content turned out to be 0.12 wt. %. The compound also gave a Dissolution rate in data set [4] (0.1 wt.% product, stirring) of 1 min.
Compound `CC1=CC(=O)NS(=O)(=O)O1.COC(=O)[C@H](Cc1ccccc1)NC(=O)[C@@H](N)CC(=O)O` [Experiment 6, 1:1 salt of APM and acesulfamic acid] (H-Asp-Phe-OMe) registered a moisture content in data set [3] of 0.15%.
The same measure, in the same setting: in the case of `CC1=CC(=O)NS(=O)(=O)O1.COC(=O)[C@H](Cc1ccccc1)NC(=O)[C@@H](N)CC(=O)O` [Exp. 2l, 1:1 salt of APM and acesulfamic acid] (H-Asp-Phe-OMe) it was 0.07%.
Take `COC(=O)[C@H](Cc1ccccc1)NC(=O)[C@@H](N)CC(=O)O` [APM, Δ-L-aspartyl-L-phenylalanine methyl ester] (H-Asp-Phe-OMe): the thermal stability result in data set [5] was “relatively unfavorable thermal stability”.
Compound `CC1=CC(=O)NS(=O)(=O)O1.COC(=O)[C@H](Cc1ccccc1)NC(=O)[C@@H](N)CC(=O)O` [Exp. 2k, 1:1 salt of APM and acesulfamic acid] (H-Asp-Phe-OMe) returned a moisture content in data set [3] of 0.10%.
In the case of `COC(=O)[C@H](Cc1ccccc1)NC(=O)[C@@H](N)CC(=O)O.O=C1NS(=O)(=O)c2ccccc21` [comp. exp. 1A, 1:1 salt of APM and SacH] (H-Asp-Phe-OMe), in data set [2] (70 hours, 70° C.), the “Increase in DKP content” value was found to be 0 wt. %. In data set [2], this compound came in with a DKP content of 0.53 wt. %.
Turning to `CC1=CC(=O)NS(=O)(=O)O1` [AceH], in data set [2] (1 hour, 120° C.), the “thermal stability, observation in words” value is on record as “yellow/orange colour; strong degradation; hydrogen sulphide odour”.
As for `O=S(=O)(O)NC1CCCCC1` [cyclamate-Ca], in data set [6], the moisture content result is reported as “up to 9%”.
`CC1=CC(=O)NS(=O)(=O)O1.COC(=O)[C@H](Cc1ccccc1)NC(=O)[C@@H](N)CC(=O)O` [Exp. 3a, 1:1 salt of APM and acesulfamic acid] (H-Asp-Phe-OMe) returned a moisture content in data set [3] of 2.5%.
As for `COC(=O)[C@H](Cc1ccccc1)NC(=O)[C@@H](N)CC(=O)O` [APM granulate, reference compound] (H-Asp-Phe-OMe), the “Increase in DKP content” value in data set [2] (1 hour, 120° C.) is recorded as 2.09 wt. %; in data set [2] (70 hours, 70° C.), 0.75 wt. %. Besides, in data set [2], the DKP content turned out to be 0.18 wt. %. The compound further displayed a moisture content in data set [3] (table 1) of 2.30 wt. %. Moreover, the Dissolution rate in data set [4] (200-700 μm fraction, 0.1 wt.%) turned out to be 7 min; in data set [4] (<200 μm fraction, 0.1 wt.%) it was 4 min.
`COC(=O)C(Cc1ccccc1)NC(=O)C(N)CC(=O)O.O=C1NS(=O)(=O)c2ccccc21` (stereo not drawn) [Exp. 4b., 1:1 salt of APM and saccharin] (H-Asp-Phe-OMe; configuration not given here): the moisture content in data set [3] is 0.04% and 0.05%.
With `COC(=O)[C@H](Cc1ccccc1)NC(=O)[C@@H](N)CC(=O)O` [APM powder] (H-Asp-Phe-OMe), the “Increase in DKP content” value is recorded as 2.34 wt. % in data set [2] (1 hour, 120° C.) and 0.20 wt. % in data set [2] (70 hours, 70° C.). The DKP content in data set [2] is given as 0.04 wt. %. The moisture content in data set [3] (table 1) worked out at 2.60 wt. %. The Dissolution rate in data set [4] (0.1 wt.% product, stirring) fell in the range of 2 to 3 min.
Turning to `O=C1NS(=O)(=O)c2ccccc21` [SacH, 3-oxo-2,3-dihydro-1,2-benzisothiazole-1,1-dioxide], the “thermal stability, observation in words” value in data set [2] (1 hour, 120° C.) is “stable”.
Turning to `O=C1NS(=O)(=O)c2ccccc21` [saccharin-Na, sodium 2,3-dihydro-3-oxobenzisosulfonazole], the moisture content entry in data set [6] is reported as “up to 15%”.
In data set [3], `COC(=O)C(Cc1ccccc1)NC(=O)C(N)CC(=O)O.O=C1NS(=O)(=O)c2ccccc21` (stereo not drawn) [Exp. 3b, 1:1 salt of APM and saccharinate] (H-Asp-Phe-OMe; configuration not given here) displayed a moisture content of 0.27%.
As for `CC1=CC(=O)NS(=O)(=O)O1.COC(=O)[C@H](Cc1ccccc1)NC(=O)[C@@H](N)CC(=O)O` [comp. exp. 1D, 1:1 salt of APM and acesulfamic acid] (H-Asp-Phe-OMe), the “Increase in DKP content” value is listed as 2.18 wt. % in data set [2] (1 hour, 120° C.) and 0.52 wt. % in data set [2] (70 hours, 70° C.). Moreover, the “thermal stability, observation in words” value in data set [2] (1 hour, 120° C.) was “yellow/yellowbrown colour, with some degradation of the Ace part”; in data set [2] (70 hours, 70° C.), “pale yellow; with hplc some degradation of the Ace part”. This compound showed a DKP content in data set [2] of 0.32 wt. %. Besides, the figures for the moisture content in data set [3] and in data set [3] (table 1) were 0.89% and 0.89 wt. %, respectively.
Regarding `CC1=CC(=O)NS(=O)(=O)O1.COC(=O)[C@H](Cc1ccccc1)NC(=O)[C@@H](N)CC(=O)O` [Exp. 5a., 1:1 salt of APM and acesulfamic acid] (H-Asp-Phe-OMe), in data set [3], the moisture content was 0.09%.
Turning to `COC(=O)[C@H](Cc1ccccc1)NC(=O)[C@@H](N)CC(=O)O.O=C1NS(=O)(=O)c2ccccc21` [comp. exp. 1B, 1:1 salt of APM and SacH] (H-Asp-Phe-OMe), the “Increase in DKP content” value in data set [2] (70 hours, 70° C.) was found to be 0 wt. %. The DKP content in data set [2] came to 0.21 wt. %.
Turning to `CC1=CC(=O)NS(=O)(=O)O1.COC(=O)[C@H](Cc1ccccc1)NC(=O)[C@@H](N)CC(=O)O` [exp. 2a., 1:1 salt of APM and acesulfamic acid] (H-Asp-Phe-OMe), the “Increase in DKP content” value in data set [2] (1 hour, 120° C.) stood at 0 wt. %; in data set [2] (70 hours, 70° C.), 0 wt. %. The DKP content in data set [2] worked out at 0.01 wt. %. Also, the moisture content in data set [3] is on record as 0.11%; in data set [3] (table 1), 0.11 wt. %. Besides, the Dissolution rate in data set [4] (0.1 wt.% product, stirring) amounted to 1 min.
Take `CC1=CC(=O)NS(=O)(=O)O1.COC(=O)[C@H](Cc1ccccc1)NC(=O)[C@@H](N)CC(=O)O` [exp. 4c., 1:1 salt of APM and acesulfamic acid] (H-Asp-Phe-OMe): the “Increase in DKP content” value worked out at 0 wt. % in data set [2] (1 hour, 120° C.) and 0 wt. % in data set [2] (70 hours, 70° C.). Moreover, in data set [2] (1 hour, 120° C.), the “thermal stability, observation in words” value is on record as “fully stable, white product”. The compound further registered a DKP content in data set [2] of 0.01 wt. %. Besides, the moisture content in data set [3] amounted to 0.04%; in data set [3] (table 1) it was 0.04 wt. %. Besides, the Dissolution rate in data set [4] (0.1 wt.% product, stirring) amounted to 1 min.
